In publication PMC6556873, “Rapid Covalent-Probe Discovery by Electrophile-Fragment Screening” (Journal of the American Chemical Society, 2019):
Read-outs that look alike come from different tables or passages of the source.

Legend:
[1] = in vitro; parameters: species or system CCD841, HEK293; conditions: human, hb2 cells, read-out: HB-2 Cells Viability (%)
[2] = molecular target: T1, BSA (Bos taurus, UniProt P02769); parameters: Intact protein LC/MS covalent labelling, fragments in pools of five, 200 uM each, 4 °C; conditions: 24 h, 4 °C, pool of five; 200 µM; covalent
T1 construct: gene ALB
T1 sequence (P02769 whole entry, the tested form may be a part): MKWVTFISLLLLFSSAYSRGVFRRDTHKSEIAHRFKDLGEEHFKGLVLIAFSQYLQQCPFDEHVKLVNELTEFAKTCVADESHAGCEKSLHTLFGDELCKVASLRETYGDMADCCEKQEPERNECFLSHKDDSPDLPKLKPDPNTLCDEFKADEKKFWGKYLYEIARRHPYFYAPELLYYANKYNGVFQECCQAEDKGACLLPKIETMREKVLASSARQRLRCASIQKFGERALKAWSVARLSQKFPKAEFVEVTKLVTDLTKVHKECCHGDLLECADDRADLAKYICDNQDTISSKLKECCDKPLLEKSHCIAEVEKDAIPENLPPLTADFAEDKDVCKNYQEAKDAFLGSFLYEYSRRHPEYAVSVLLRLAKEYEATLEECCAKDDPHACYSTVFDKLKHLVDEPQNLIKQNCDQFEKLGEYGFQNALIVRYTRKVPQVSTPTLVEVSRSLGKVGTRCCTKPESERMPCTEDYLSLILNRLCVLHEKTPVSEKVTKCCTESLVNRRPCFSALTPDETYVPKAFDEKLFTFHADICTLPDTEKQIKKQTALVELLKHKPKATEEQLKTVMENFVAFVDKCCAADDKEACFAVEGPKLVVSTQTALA
Procedure: (§1) Incubations were performed at 200 μM for each compound and 2 μM of protein (10 μM for BSA) for 24 h at 4 °C with moderate shaking. Incubation buffers varied among proteins (PBS pH 7.4 for QSOX1 and BSA; 10 mM HEPES pH 7.5, 0.3 M NaCl, 0.5 mM TCEP for PCAF, UPS8, and NUDT7; […]; 10 mM Na2HPO4 pH 7.5 100 mM NaCl 5 mM β-mercaptoethanol for NV3CP; 20 mM Na phosphate pH 7.5 for NNMT; […]. The reaction was stopped by quenching with formic acid, 0.4% final concentration. Each protein was incubated with the electrophilic library in pools of five compounds per well. The pool’s composition maximized the difference in mass between fragments in the same well. Incubations were performed with each fragment at 200 μM, for 24 h at 4 °C, to allow the screening of proteins that are not stable for long time periods at higher temperatures. Following incubation, we used intact protein [compound left out] chromatography/mass spectrometry (LC/MS) to identify the fragments and quantify their labeling (Figure 3A). […] There was good agreement between the percent of labeling of NUDT7 by 100 random individual compounds and that obtained in pools of five (R^2=0.78; Figure S6 and Data set 2 in the Supporting Information).

[3] = molecular target: T2, OTUB2 (OTUB2A) (Homo sapiens, UniProt Q96DC9); parameters: Intact protein LC/MS covalent labelling, fragments in pools of five, 200 uM each, 4 °C; conditions: 24 h, 4 °C, pool of five; 200 µM; covalent
T2 construct: full length residues 1-234, E. coli BL21(DE3)-R3, His tag removed by TEV, construct 27312 Da
T2 sequence (Q96DC9 1-234): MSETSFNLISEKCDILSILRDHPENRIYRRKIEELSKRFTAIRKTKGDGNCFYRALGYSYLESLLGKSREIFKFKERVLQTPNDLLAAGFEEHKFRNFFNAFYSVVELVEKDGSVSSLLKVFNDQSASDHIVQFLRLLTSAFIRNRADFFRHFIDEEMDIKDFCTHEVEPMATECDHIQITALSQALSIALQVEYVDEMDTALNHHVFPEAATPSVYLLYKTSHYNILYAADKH
Procedure: as §1

[4] = molecular target: T3, PCAF (Homo sapiens, UniProt Q92831); parameters: Intact protein LC/MS covalent labelling, fragments in pools of five, 200 uM each, 4 °C; conditions: 24 h, 4 °C, pool of five; 200 µM; covalent
T3 construct: gene KAT2B
T3 sequence (Q92831 whole entry, the tested form may be a part): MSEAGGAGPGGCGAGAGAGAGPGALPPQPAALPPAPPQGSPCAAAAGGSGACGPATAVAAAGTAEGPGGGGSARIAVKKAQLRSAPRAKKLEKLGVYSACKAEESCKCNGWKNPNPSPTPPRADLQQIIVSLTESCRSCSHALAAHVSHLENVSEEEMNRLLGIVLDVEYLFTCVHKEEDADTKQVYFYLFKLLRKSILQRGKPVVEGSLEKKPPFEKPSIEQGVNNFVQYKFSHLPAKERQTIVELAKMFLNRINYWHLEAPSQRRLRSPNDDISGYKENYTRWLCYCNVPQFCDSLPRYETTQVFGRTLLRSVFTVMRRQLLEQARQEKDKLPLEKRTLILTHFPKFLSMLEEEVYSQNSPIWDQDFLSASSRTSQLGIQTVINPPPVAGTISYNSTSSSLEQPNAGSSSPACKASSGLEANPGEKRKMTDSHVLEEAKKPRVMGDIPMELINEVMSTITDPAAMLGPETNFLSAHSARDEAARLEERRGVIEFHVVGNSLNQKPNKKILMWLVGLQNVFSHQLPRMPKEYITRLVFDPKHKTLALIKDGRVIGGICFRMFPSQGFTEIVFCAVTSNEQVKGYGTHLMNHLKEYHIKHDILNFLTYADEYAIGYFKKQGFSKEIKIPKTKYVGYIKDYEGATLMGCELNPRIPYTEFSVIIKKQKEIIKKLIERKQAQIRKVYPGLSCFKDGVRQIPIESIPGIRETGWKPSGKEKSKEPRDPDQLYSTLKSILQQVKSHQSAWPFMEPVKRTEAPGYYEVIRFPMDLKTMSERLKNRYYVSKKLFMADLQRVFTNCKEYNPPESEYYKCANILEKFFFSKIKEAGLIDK
Procedure: as §1

[5] = molecular target: T4, NUDT7 (Homo sapiens, UniProt P0C024); parameters: Intact protein LC/MS covalent labelling, fragments in pools of five, 200 uM each, 4 °C; conditions: 24 h, 4 °C, pool of five; 200 µM; covalent
T4 construct: residues 14-235, E. coli, pNIC28-Bsa4, N-terminal His6 tag removed by TEV, construct 26672 Da
T4 sequence (P0C024 14-235): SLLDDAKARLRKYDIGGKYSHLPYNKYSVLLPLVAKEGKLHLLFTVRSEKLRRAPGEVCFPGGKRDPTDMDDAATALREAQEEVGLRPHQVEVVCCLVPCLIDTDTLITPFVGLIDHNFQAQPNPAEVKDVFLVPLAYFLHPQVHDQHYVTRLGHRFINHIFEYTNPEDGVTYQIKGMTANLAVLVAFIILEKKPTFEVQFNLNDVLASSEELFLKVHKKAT
Procedure: as §1

[6] = in vitro; parameters: species or system HB2, HEK293; conditions: human, ccd841 cells
[7] = in vitro; parameters: species or system HB2, CCD841; conditions: human, hek293 cells

Compound	BSA [2]	OTUB2 [3]	PCAF [4]	NUDT7 [5]	viability at 48 h, 10 µM [1] [%]	viability at 48 h, 10 µM [6] [%]	viability at 48 h, 10 µM [7] [%]
O=C(CCl)N1CCN(c2ccc(Cl)cc2[N+](=O)[O-])CC1 [PCM-0102125]	0	0	0	0.29	2.3	8.1	1.4
Cc1ccc(-n2nc(C)c(NC(=O)CCl)c2C)cc1 [PCM-0102131]	0	0	0	0	63.8	26.3	30.1
CC(C)c1cc(NC(=O)CCl)on1 [PCM-0102132]	0	0	0	0	70.9	69.9	70.6
Cl.O=C(CCl)N1CCN(CC(=O)N2CCOCC2)CC1 [PCM-0102133]	0	0.15	0	0	96.6	94.8	92.7
Cl.O=C(CCl)N1CCN(Cc2c(F)cccc2Cl)CC1 [PCM-0102137]	0	0	0	0	20.8	59.5	25.8
COc1ccc(NC(=O)CCl)cn1 [PCM-0102140]	0	0	0	0	62	63.7	44.3
CS(=O)(=O)c1ccccc1NC(=O)CCl [PCM-0102141]	0	0	0	0	96.8	98.2	96.8
Cc1c(C#N)c(NC(=O)CCl)n(-c2cccc(F)c2)c1C [PCM-0102146]	0	0.1	0	0.58	25	47.1	3.5
Cc1nnc(NC(=O)CCl)o1 [PCM-0102147]	0	0	0	0	102	107	92.2
O=C(CCl)N1CCC(c2ccccc2)=N1 [PCM-0102150]	0	0	0	0	31.2	71.8	32.7
O=C(CCl)Nc1cccc(I)c1 [PCM-0102154]	0	0.49	0	0.24	12.7	49	1.7
O=C(CCl)N(CC(F)(F)F)c1ccc(Cl)cc1 [PCM-0102155]	0	0	0	0.79	11.2	3.5	4.3

Further lines, with some results ahead:

BSA [2]	OTUB2 [3]	PCAF [4]	NUDT7 [5]	Compound	viability at 48 h, 10 µM [1] [%]	viability at 48 h, 10 µM [6] [%]	viability at 48 h, 10 µM [7] [%]
0	0	0	0	O=C(CCl)NC(=O)NCc1ccccc1 [PCM-0102122]	54.8	76.9	65.5
0	0.39	0	0.14	O=C(CCl)N1CCc2sccc2C1 [PCM-0102123]	9.2	73.1	6.6
0	0.1	0	0	O=C(CCl)Nc1ccc(Cl)cc1C(=O)O [PCM-0102127]	100	104	86.8
0	0.31	0	0.07	CC(=O)N1CCc2cc(NC(=O)CCl)ccc21 [PCM-0102129]	33.4	50.6	5.9
0	0	0	0	Cc1c(Cl)cccc1NC(=O)CCl [PCM-0102130]	26	48.1	4.9
0	0.11	0	0.1	Cc1cc([N+](=O)[O-])ccc1NC(=O)CCl [PCM-0102134]	44.3	60.9	18.1
0	1	0	0.09	O=C(CCl)NNC(=O)c1cc2c(s1)CCCC2 [PCM-0102142]	49	62.6	52.6
0	0.05	0	0.39	COC(=O)c1c(NC(=O)CCl)sc2c1CCCC2 [PCM-0102143]	31.6	68.1	8.6
0.12	0	0	0.32	O=C(CCl)Nc1nc2c(F)c(F)c(F)cc2s1 [PCM-0102144]	90.9	57.9	83.1
0	0.79	0	0	O=C(CCl)NC(=O)OCc1ccccc1 [PCM-0102153]	96	109	82.8
